From publication PMC12648310, “Modular Assembled Targeting Chimera Enables Multimodal Targeted Protein Degradation” (JACS Au, 2025)
Where two headings read alike, the source gives them in different places.

Columns and labels:
BRD4 = target: T1, BRD4 (Homo sapiens, UniProt O60885); assay: Immunoblot of BRD4 degradation in MDA-MB-231 cells; format: cell-based; details: component without its click partner
T1 construct: Western blot analysis of BET protein levels was performed across these 11 module assembly combinations; endogenous in cells; host or cells: MDA-MB-231
Experimental: deprotection under General Procedure I, followed by condensation with compound 4 under General Procedure II, yielded AN2-C3-Tz as a purple oil in 60% yield (over two steps from 25).
The full NMR and MS spectra of the synthesized degrader compounds were shown in Appendix A and B, respectively. The degrader compounds were dissolved in DMSO as 10 mM stock solution and stored at -20℃, freeze-thaw cycle was avoided. Inhibitors for bioassays were purchased from […]
Cell culture and drug treatment
The breast cancer cells and leukemia cells used were purchased from Wuhan Purdue Life Technology Co., Ltd. All cell lines were tested for mycoplasma to ensure no contamination. […]
The fluorescence spectrum of POM-dTz was measured using a Hitachi F4500. […]
P0013G) premixed with a protease inhibitor cocktail. […] The supernatant was quantified and adjusted using a bicinchoninic acid (BCA) method and then boiled in an SDS loading buffer. […] After another 3 washes with TBST, the membrane was incubated with an enzymatic chemiluminescence (ECL) reagent, and the signal was detected instantly by a chemiluminescence imager (JP-K600, Jiapeng, Shanghai, China).
The signal values were quantified by ImageJ software. The expression level of a target protein was determined by the ratio of its signal value to GAPDH’s. […]

[1] = Pharmacokinetics in SD rats; format: in vivo, Sprague–Dawley (SD) rats; details: for half-life / AUC(0-inf) / AUC(0-t) / Cmax / Tmax / bioavailability / MRT inf / C0 / Vd / clearance: male, Sprague-Dawley, rat, plasma; for MRT inf: read-out: MRTinf_obs; for clearance: read-out: CL_obs
Experimental: Given the favorable cellular performance of the POM-dmTz and JQ1-TCO stoichiometric ratio, we further investigated their in vivo pharmacokinetic (PK) profiles (Figure ). […] Blood samples were collected from the jugular vein at 5 min, 15 min, 30 min, 1, 2, 4, 7, and 24 h postdosing for drug concentration analysis.
This pharmacokinetic study protocol used SPF grade male SD rats (6-8 weeks old, weight 200-300g, supplied by a biotechnology company in Beijing) to evaluate the metabolic characteristics of compound GP262 through intravenous injection (IV) and intraperitoneal injection (IP). The IV group received a dose of 5 mg/kg (2.5 mg/mL concentration, 2 mL/kg administration), while the IP group […]
consisted of 3 fasted animals. The IV group solvent was a mixed system containing 10% DMSO, 60% PEG400, and 30% water. Collect whole blood samples at 5 minutes, 15 minutes, 0.5 hours, 1, 2, 4, 7, and 24 hours after administration. Immediately after collection with EDTA-K2 anticoagulant tube, centrifuge at 4 ℃ and 4000 × g for 5 minutes. Separate the plasma and transfer it to an anticoagulant free EP tube. Store it at -75 ± 15 ℃ for testing at ultra-low temperature. Throughout the experiment, a dual drug group parallel control was set up, and standardized operating procedures were used to ensure the timeliness and storage stability of plasma separation, providing standardized biological samples for subsequent LC-MS/MS analysis. […]

## Cc1sc2c(c1C)C(c1ccc(Cl)cc1)=NC(CC(=O)NCCNC(=O)OC1CCC=CCCC1)c1nnc(C)n1-2 (stereo not shown) [JQ1-TCO]
BRD4
  BRD4 degradation by single component alone: neither component alone triggered detectable degradation
[1]; IP 10 mg/kg
  half-life: ~124 min
[1]; IP 20 mg/kg, mean
  AUC(0-inf): 7670 ng·h/mL
  AUC(0-t): 7660 ng·h/mL
  Cmax: 1860 ng/mL
  Tmax: 25 min
  bioavailability: 64%
  half-life: 124 min
  MRT inf: 193 min
[1]; IV 5 mg/kg, mean
  AUC(0-inf): 1240 ng·h/mL
  AUC(0-t): 1240 ng·h/mL
  C0: 2030 ng/mL
  Vd: 10.3 L/kg
  half-life: 118 min
  clearance: 69 mL/min/kg
  MRT inf: 44 min

## Cc1nnc(CNC(=O)CCOCC(COCCC(=O)NCc2nnc(C)nn2)NC(=O)COc2cccc3c2C(=O)N(C2CCC(=O)NC2=O)C3=O)nn1 (stereo not shown) [POM-dmTz]
BRD4
  BRD4 degradation by single component alone: neither component alone triggered detectable degradation
[1]; IP 10 mg/kg
  T1/2: shorter half-life
  half-life: 22.6 min
[1]; IP 10 mg/kg, mean
  AUC(0-inf): 406 ng·h/mL
  AUC(0-t): 405 ng·h/mL
  Cmax: 398 ng/mL
  Tmax: 25 min
  bioavailability: 40.5%
[1]; IV 5 mg/kg, mean
  AUC(0-inf): 500 ng·h/mL
  AUC(0-t): 496 ng·h/mL
  C0: 1850 ng/mL
  Vd: 9.39 L/kg
  half-life: 40.2 min
  clearance: 171 mL/min/kg
  MRT inf: 21.3 min
